Test: Biodistribution studies in normal female Wistar rats
Type: in vivo, rat
Conditions: for % ID blood / SUV blood / % ID bone / SUV bone / % ID carcass / % ID cerebellum / SUV cerebellum / SUV cerebrum + cerebellum / % ID cerebrum total / % ID cortex / SUV cortex / % ID heart / % ID hippocampus / SUV hippocampus / % ID intestines / % ID kidneys / % ID liver / % ID lungs / % ID muscle / SUV muscle / % ID rest of cerebrum / SUV rest of cerebrum / % ID spleen + pancreas / % ID stomach / % ID striatum / SUV striatum / % ID urine / SUV whole cerebrum: mean n=3; for SUV cerebrum + cerebellum / Total brain uptake: cerebrum + cerebellum; for Total brain uptake: n=3
Description: High-performance liquid chromatography (HPLC) analysis was performed on a LaChrom Elite® HPLC system (Hitachi, Armstadt, Germany) connected to a UV spectrometer. For the analysis of radiolabeled compounds, the HPLC eluate, after passage through the UV detector, was led over a shielded 3-inch NaI(Tl) scintillation detector connected to a single channel analyser (Gabi box, Raytest, Straubenhardt, Germany). The output signal was recorded and analysed using a GINA Star data acquisition system (Raytest, Straubenhardt, Germany). Radioactivity in samples of biodistribution studies was quantified using an automated gamma counter equipped with a 3-inch NaI(Tl) well crystal coupled to a multichannel analyser (Wallac 2480 Wizard, Wallac, Turku, Finland). Results were corrected for background radiation, physical decay and counter dead time. Animals were housed in individually ventilated cages in a thermoregulated (˜22° C.), humidity-controlled facility under a 12 h/12 h light/dark cycle with access to food and water ad libitum. All animal experiments were conducted according to the Belgian code of practice for the care and use of animals, after approval from the local University Ethics Committee for Animals.
Biodistribution studies of [^11C]-2 and [^11C]-1 were carried out in healthy female Wister rats (body weight 185-220 g) at 2 min, 30 min and 60 min post injection (p.i.) (n=3/time point). Rats were injected with about 18 MBq of the tracer via a tail vein under anesthesia (2.5% isoflurane in O2 at 1 L/min flow rate) and sacrificed by decapitation at the above specified time points. Blood and major organs were collected in tared tubes and weighed. The radioactivity in blood, organs and other body parts was measured using an automated gamma counter. For calculation of total blood radioactivity, blood mass was assumed to be 7% of the body mass. For calculation of total muscle and total bone radioactivity, muscle and bone mass were assumed to be 40% and 12% of the body mass, respectively.

With `C[C@H]1CN(c2ccc(C(F)(F)F)cc2)C(=O)c2c(-c3ccnc(N[11CH3])c3)cnn21` [[^11C]-2] the “2 min - to- 30 min wash-out ratio” value (blood) was 1.75, the “% ID blood” value (blood, 2 min p.i.) was 4.9 % ID and the SUV blood (blood, 2 min p.i.) was 0.70 SUV. The “% ID blood” value (blood, 30 min p.i.) was 2.8 % ID, the SUV blood (blood, 30 min p.i.) was 0.40 SUV and the “% ID blood” value (blood, 60 min p.i.) was 2.0 % ID. The SUV blood (blood, 60 min p.i.) was 0.29 SUV, the “2 min - to- 30 min wash-out ratio” value (bone) was 1.34 and the “% ID bone” value (bone, 2 min p.i.) was 7.0 % ID. For the same molecule, the SUV bone (bone, 2 min p.i.) was 0.59 SUV, the “% ID bone” value (bone, 30 min p.i.) was 4.9 % ID and the SUV bone (bone, 30 min p.i.) was 0.44 SUV. For the same molecule, the “% ID bone” value (bone, 60 min p.i.) was 4.2 % ID, the SUV bone (bone, 60 min p.i.) was 0.37 SUV and the “% ID carcass” value (2 min p.i.) was 39.5 % ID. The “% ID carcass” value (30 min p.i.) was 49.9 % ID, the “% ID carcass” value (60 min p.i.) was 44.8 % ID and the “2 min - to- 30 min wash-out ratio” value (cerebellum) was 2.85. For the same molecule, the “% ID cerebellum” value (cerebellum, 2 min p.i.) was 0.279 % ID, the SUV cerebellum (cerebellum, 2 min p.i.) was 1.78 SUV and the “% ID cerebellum” value (cerebellum, 30 min p.i.) was 0.084 % ID. The SUV cerebellum (cerebellum, 30 min p.i.) was 0.62 SUV, the “% ID cerebellum” value (cerebellum, 60 min p.i.) was 0.058 % ID and the SUV cerebellum (cerebellum, 60 min p.i.) was 0.45 SUV. For the same molecule, the “SUV cerebrum + cerebellum” value (2 min p.i.) was 1.80 SUV, the Total brain uptake (2 min p.i.) was 1.4 % ID and the Total brain uptake (2 min p.i., listed as [^11C-2]) was 1.44 ± 0.24 % ID. For the same molecule, the “SUV cerebrum + cerebellum” value (30 min p.i.) was 0.67 SUV, the Total brain uptake (30 min p.i.) was 0.50 ± 0.05 % ID and the “SUV cerebrum + cerebellum” value (60 min p.i.) was 0.49 SUV. For the same molecule, the Total brain uptake (60 min p.i.) was 0.38 ± 0.03 % ID, the “% ID cerebrum total” value (2 min p.i.) was 1.153 % ID and the “% ID cerebrum total” value (30 min p.i.) was 0.408 % ID. For the same molecule, the “% ID cerebrum total” value (60 min p.i.) was 0.316 % ID, the “2 min - to- 30 min wash-out ratio” value (cortex) was 3.04 and the “% ID cortex” value (cortex, 2 min p.i.) was 0.064 % ID. For the same molecule, the SUV cortex (cortex, 2 min p.i.) was 2.23 SUV, the “% ID cortex” value (cortex, 30 min p.i.) was 0.024 % ID and the SUV cortex (cortex, 30 min p.i.) was 0.74 SUV. The “% ID cortex” value (cortex, 60 min p.i.) was 0.014 % ID, the SUV cortex (cortex, 60 min p.i.) was 0.58 SUV and the “% ID heart” value (2 min p.i.) was 1.0 % ID. For the same molecule, the “% ID heart” value (30 min p.i.) was 0.4 % ID, the “% ID heart” value (60 min p.i.) was 0.3 % ID and the “2 min - to- 30 min wash-out ratio” value (hippocampus) was 2.31. For the same molecule, the “% ID hippocampus” value (hippocampus, 2 min p.i.) was 0.046 % ID, the SUV hippocampus (hippocampus, 2 min p.i.) was 1.49 SUV and the “% ID hippocampus” value (hippocampus, 30 min p.i.) was 0.018 % ID. For the same molecule, the SUV hippocampus (hippocampus, 30 min p.i.) was 0.64 SUV, the “% ID hippocampus” value (hippocampus, 60 min p.i.) was 0.016 % ID and the SUV hippocampus (hippocampus, 60 min p.i.) was 0.49 SUV. The “% ID intestines” value (2 min p.i.) was 12.2 % ID, the “% ID intestines” value (30 min p.i.) was 19.4 % ID and the “% ID intestines” value (60 min p.i.) was 24.2 % ID. For the same molecule, the “% ID kidneys” value (2 min p.i.) was 5.3 % ID, the “% ID kidneys” value (30 min p.i.) was 2.2 % ID and the “% ID kidneys” value (60 min p.i.) was 1.6 % ID. The “% ID liver” value (2 min p.i.) was 26.5 % ID, the “% ID liver” value (30 min p.i.) was 16.0 % ID and the “% ID liver” value (60 min p.i.) was 11.9 % ID. The “% ID lungs” value (2 min p.i.) was 6.8 % ID, the “% ID lungs” value (30 min p.i.) was 1.8 % ID and the “% ID lungs” value (60 min p.i.) was 1.3 % ID. The “2 min - to- 30 min wash-out ratio” value (muscle) was 0.46, the “% ID muscle” value (muscle, 2 min p.i.) was 11.1 % ID and the SUV muscle (muscle, 2 min p.i.) was 0.26 SUV. The “% ID muscle” value (muscle, 30 min p.i.) was 24.1 % ID, the SUV muscle (muscle, 30 min p.i.) was 0.56 SUV and the “% ID muscle” value (muscle, 60 min p.i.) was 21.4 % ID. The SUV muscle (muscle, 60 min p.i.) was 0.48 SUV, the “2 min - to- 30 min wash-out ratio” value (rest of cerebrum) was 2.71 and the “% ID rest of cerebrum” value (rest of cerebrum, 2 min p.i.) was 0.944 % ID. For the same molecule, the “SUV rest of cerebrum” value (rest of cerebrum, 2 min p.i.) was 1.79 SUV, the “% ID rest of cerebrum” value (rest of cerebrum, 30 min p.i.) was 0.323 % ID and the “SUV rest of cerebrum” value (rest of cerebrum, 30 min p.i.) was 0.66 SUV. For the same molecule, the “% ID rest of cerebrum” value (rest of cerebrum, 60 min p.i.) was 0.256 % ID, the “SUV rest of cerebrum” value (rest of cerebrum, 60 min p.i.) was 0.49 SUV and the “% ID spleen + pancreas” value (2 min p.i.) was 2.4 % ID. For the same molecule, the “% ID spleen + pancreas” value (30 min p.i.) was 1.4 % ID, the “% ID spleen + pancreas” value (60 min p.i.) was 1.1 % ID and the “% ID stomach” value (2 min p.i.) was 2.3 % ID. The “% ID stomach” value (30 min p.i.) was 6.5 % ID, the “% ID stomach” value (60 min p.i.) was 12.3 % ID and the “2 min - to- 30 min wash-out ratio” value (striatum) was 2.59. For the same molecule, the “% ID striatum” value (striatum, 2 min p.i.) was 0.099 % ID, the SUV striatum (striatum, 2 min p.i.) was 1.68 SUV and the “% ID striatum” value (striatum, 30 min p.i.) was 0.043 % ID. For the same molecule, the SUV striatum (striatum, 30 min p.i.) was 0.65 SUV, the “% ID striatum” value (striatum, 60 min p.i.) was 0.030 % ID and the SUV striatum (striatum, 60 min p.i.) was 0.49 SUV. The “% ID urine” value (2 min p.i.) was 0.1 % ID, the “% ID urine” value (30 min p.i.) was 0.5 % ID and the “% ID urine” value (60 min p.i.) was 11 % ID. For the same molecule, the “2 min - to- 30 min wash-out ratio” value (whole cerebrum) was 2.70, the SUV whole cerebrum (whole cerebrum, 2 min p.i.) was 1.79 SUV and the SUV whole cerebrum (whole cerebrum, 30 min p.i.) was 0.66 SUV. For the same molecule, the SUV whole cerebrum (whole cerebrum, 60 min p.i.) was 0.49 SUV.
